Data published in patent publication US7749981B2, “Drug-eluting stents coated with non-nucleotide P2Y12 receptor antagonist compound” (Inspire Pharmaceuticals, Inc., priority 2005, dated 2010).
Like-named read-outs stand apart in the source and are kept apart here.

Test system: washed human platelets
Assay: Inhibition of ADP-induced platelet aggregation in washed human platelets
Format: cell-based
Conditions: for activity as antagonists of P2Y12-mediated platelet aggregation (in words): comment on Table 1 data; for IC50: agonist challenge (ADP) typically 1-5 μM, average of two experiments or more
Protocol: Isolation of Platelets: Human blood is obtained from informed healthy adult volunteers. Blood is collected into one-sixth volume of acid/citrate/dextrose (ACD) buffer (85 mM sodium citrate, 65 mM citric acid, and 100 mM glucose). Collected blood is placed in a water bath at 37° C. for 30 minutes. Blood is then centrifuged at 275×g for 16 minutes at room temperature and the platelet-rich plasma is removed and centrifuged at 2200×g for 13 minutes at room temperature. The platelet pellet is resuspended in 40 mL of HEPES-buffered Tyrode's solution (137 mM NaCl, 2.7 mM KCl, 1 mM MgCl2, 2 mM CaCl2, 12 mM NaHCO3, 0.36 mM NaH2PO4, 5.5 mM glucose, 5 mM HEPES pH 7.4, 0.35% bovine serum albumin or 0.35% human serum albumin) containing 10 U/mL heparin and 5 μM (final concentration) prostaglandin 12 (PGI2). The platelet suspension is incubated in a 37° C. water bath for 10 minutes and then 5 μM (final conc.) PGI2 is added just before centrifugation at 1900×g for 8 minutes. The resulting pellet is resuspended in 40 mL of HEPES-buffered Tyrode's solution containing 5 μM (final concentration) PGI2 and then is incubated for 10 minutes in a 37° C. water bath. A small aliquot (500 μL) of the platelet suspension is removed for platelet counting. Prior to centrifugation 5 μM (final concentration) PGI2 is added to the suspension and then the suspension is centrifuged at 1900×g for 8 minutes. The pellet is resuspended at a density of 5×10^8 cells/mL in HEPES-buffered Tyrode's solution containing 0.05 U/mL apyrase.
Aggregation Studies: ADP-induced platelet aggregation is determined by measuring the transmission of light through a 0.5 ml suspension of stirred (1000 rpm) washed platelets in a lumi-aggregometer at 37° C. (Chrono-Log Corp. Havertown, Pa.). The baseline of the instrument is set using 0.5 ml of Hepes-buffered Tyrode's solution. Prior to aggregation measurements, the platelet suspension is supplemented with 1 mg/ml fibrinogen. Platelet aggregation is initiated by the addition of indicated concentrations of ADP or other agonists, and the light transmission is continuously recorded for at least 8 min. When inhibitors of platelet aggregation are tested, platelets are incubated for 2 min in the presence of indicated concentrations of inhibitor before addition of ADP or other agonists, and the response is recorded for at least 8 min. The potency of agonists and inhibitors of platelet aggregation is calculated from both the rate of aggregation and the maximal extent of aggregation obtained for each determination by fitting the data to a four-parameter logistic equation using the GraphPad software package (GraphPad Corp. San Diego, Calif.).
IC50 values represent the concentration of antagonist necessary to inhibit by 50% the aggregation elicited by a given concentration of ADP.
Platelet IC50 data were determined using washed human platelets, according to the protocol of example 14. Agonist challenge (ADP) typically in the range of 1-5 μM.

[1] = read-out: PLATELET DATA IC50 (uM) Washed Platelets, washed human platelets
[2] = Homo sapiens, Platelet, read-out: PLATELET DATA IC50 (uM) Washed Platelets, washed human platelets

Row | Molecule | IC50 [1] [µM] | IC50 [2] [µM] | activity as antagonists of P2Y12-mediated platelet aggregation (in words) (washed human platelets)
1 | 2-{6-[6-(3-Ethyl-ureido)-purin-9-yl]-2-phenylethynyl-tetrahydro-furo[3,4-d][1,3]dioxol-4-ylmethoxy}-nicotinic acid [Compound 26] | 1 |  | show P2Y12 antagonist activity
2 | CCNC(=O)Nc1ncnc2c1ncn2C1OC(C(=O)N2CCC[C@H]2C(=O)O)C2OC(c3ccccc3)OC21 (stereo in doubt) [Compound 69, 1-{6-[6-(3-Ethyl-ureido)-purin-9-yl]-2-trans-phenyl-tetrahydro-furo[3,4-d][1,3]dioxole-4-carbonyl}-L-pyrrolidine-2-carboxylic acid] | 0.441 |  | improved potency
3 | O=C(Nc1ccccc1)Nc1ncnc2c1ncn2C1OC(COc2ncccc2C(=O)O)C2OC(c3ccccc3C(F)(F)F)OC21 (stereo not drawn) [Compound 14, 2-[6-[6-(3-Phenyl-ureido)-purin-9-yl]-2-(2-trifluoromethyl-phenyl)-tetrahydro-furo[3,4-d][1,3]dioxol-4-ylmethoxy]-nicotinic acid] |  | 8.1 | show P2Y12 antagonist activity
4 | O=C(Nc1ccccc1)Nc1ncnc2c1ncn2C1OC(COc2ncccc2C(=O)O)C2OC(c3ccc4ccccc4c3)OC21 (stereo not drawn) [Compound 19, 2-{2-Naphthalen-2-yl-6-[6-(3-phenyl-ureido)-purin-9-yl]-tetrahydro-furo[3,4-d][1,3]dioxol-4-ylmethoxy}-nicotinic acid] |  | 18 | show P2Y12 antagonist activity
5 | CS(=O)(=O)NC(=O)NCC1OC(n2cnc3c(NC(=O)Nc4ccccc4)ncnc32)C2OC(Cc3ccccc3)OC12 (stereo not drawn) [Compound 37, 1-(9-{2-Benzyl-6-[(3-methylsulfonyl-ureido)-methyl]-tetrahydro-furo[3,4-d][1,3]dioxol-4-yl}-9H-purin-6-yl)-3-phenyl-urea] |  | 15 | show P2Y12 antagonist activity
6 | CCNC(=O)Nc1ncnc2c1ncn2C1CC(COCc2ncccc2C(=O)O)C2OC(/C=C/c3ccccc3)OC21 (stereo not drawn) [Compound 130, 2-{6-[6-(3-Ethyl-ureido)-purin-9-yl]-2-trans-styryl-tetrahydro-cyclopenta[1,3]dioxol-4-ylmethoxymethyl}-nicotinic acid] | 0.057 |  | 
7 | CCNC(=O)Nc1ncnc2c1ncn2C1CC(COCC(=O)O)C2OC(C=Cc3ccccc3)OC21 (stereo not drawn) [Compound 189, {6-[6-(3-Ethyl-ureido)-purin-9-yl]-2-trans-styryl-tetrahydro-cyclopenta[1,3]dioxol-4-ylmethoxy}-acetic acid] | 0.243 |  | P2Y12 antagonist activity can be obtained
8 | CCNC(=O)Nc1ncnc2c1ncn2C1CC(CNC(=O)c2ccccc2C(=O)O)C2OC(C=Cc3ccccc3)OC21 (stereo not drawn) [Compound 239, N-{6-[6-(3-Ethyl-ureido)-purin-9-yl]-2-trans-styryl-tetrahydro-cyclopenta[1,3]dioxol-4-ylmethyl}-phthalamic acid] | 0.086 |  | show potent activity

Second part, led by results:

Row | IC50 [1] [µM] | IC50 [2] [µM] | Molecule | activity as antagonists of P2Y12-mediated platelet aggregation (in words) (washed human platelets)
9 |  | 6.6 | CC1(C)OC2C(COc3ccc(C(=O)O)cc3C(=O)O)OC(n3cnc4c(NC(=O)Nc5ccccc5)ncnc43)C2O1 (stereo not drawn) [Compound 1, 4-{2,2-Dimethyl-6-[6-(3-phenyl-ureido)-purin-9-yl]-tetrahydro-furo[3,4-d][1,3]dioxol-4-ylmethoxy}-isophthalic acid] | show P2Y12 antagonist activity
10 |  | 2.15 | CCCCCCNC(=O)Nc1ncnc2c1ncn2C1OC(COc2ncccc2C(=O)O)C2OC(c3ccccc3)OC21 (stereo not drawn) [Compound 24, 2-{6-[6-(3-Hexyl-ureido)-purin-9-yl]-2-phenyl-tetrahydro-furo[3,4-d][1,3]dioxol-4-ylmethoxy}-nicotinic acid] | show P2Y12 antagonist activity
11 |  | 0.75 | O=C(Nc1ncnc2c1ncn2C1OC(C(=O)N2CCCC2C(=O)O)C2OC(Cc3ccccc3)OC21)NC1CCCC1 (stereo not drawn) [Compound 36, 1-{2-Benzyl-6-[6-(3-cyclopentyl-ureido)-purin-9-yl]-tetrahydro-furo[3,4-d][1,3]dioxole-4-carbonyl}-pyrrolidine-2-carboxylic acid] | show P2Y12 antagonist activity
12 |  | 0.728 | CCNC(=O)Nc1ncnc2c1ncn2C1OC(C(=O)N2CCC[C@H]2C(=O)O)C2O[C@H](c3ccccc3)OC21 (stereo partly drawn) [Compound 65, 1-{6-[6-(3-Ethyl-ureido)-purin-9-yl]-2-trans-phenyl-tetrahydro-furo[3,4-d][1,3]dioxole-4-carbonyl}-L-pyrrolidine-2-carboxylic acid] | improved potency
13 |  | 0.397 | CCNC(=O)Nc1ncnc2c1ncn2C1OC(C(=O)N2CCC[C@@H]2C(=O)O)C2O[C@H](/C=C/c3ccccc3)OC21 (stereo partly drawn) [Compound 70, 1-{6-[6-(3-Ethyl-ureido)-purin-9-yl]-2-trans-styryl-tetrahydro-furo[3,4-d][1,3]dioxole-4-carbonyl}-D-pyrrolidine-2-carboxylic acid] | improved potency
14 | 0.057 | < 0.1 | CCNC(=O)Nc1ncnc2c1ncn2C1OC(COCc2ccccc2C(=O)O)C2O[C@H](c3ccccc3)OC21 (stereo partly drawn) [Compound 107, 2-{6-[6-(3-Ethyl-ureido)-purin-9-yl]-2-trans-phenyl-tetrahydro-furo[3,4-d][1,3]dioxol-4-ylmethoxymethyl}-benzoic acid] | 
15 | 0.098 | < 0.1 | CCNC(=O)Nc1ncnc2c1ncn2C1OC(COCc2ccccc2C(=O)O)C2O[C@@H](c3ccccc3)OC21 (stereo partly drawn) [Compound 108, 2-{6-[6-(3-Ethyl-ureido)-purin-9-yl]-2-cis-phenyl-tetrahydro-furo[3,4-d][1,3]dioxol-4-ylmethoxymethyl}-benzoic acid] | 
16 |  | 8 | CCNC(=O)Nc1ncnc2c1ncn2C1OC(CCc2c(F)cccc2C(=O)O)C2O[C@H](c3ccccc3)OC21 (stereo partly drawn) [Compound 158, 2-(2-{6-[6-(3-Ethyl-ureido)-purin-9-yl]-2-trans-phenyl-tetrahydro-furo[3,4-d][1,3]dioxol-4-yl}-ethyl)-3-fluoro-benzoic acid] | active molecules
17 |  | 0.376 | CCNC(=O)Nc1ncnc2c1ncn2C1OC(CCC(=O)O)C2OC(C=Cc3ccccc3)OC21 (stereo not drawn) [Compound 183, 3-{6-[6-(3-Ethyl-ureido)-purin-9-yl]-2-styryl-tetrahydro-furo[3,4-d][1,3]dioxol-4-yl}-propionic acid] | P2Y12 antagonist activity can be obtained
18 |  | 0.512 | CCNC(=O)Nc1ncnc2c1ncn2C1OC(CNCC(=O)O)C2O[C@H](/C=C/c3ccccc3)OC21 (stereo partly drawn) [Compound 191, ({6-[6-(3-Ethyl-ureido)-purin-9-yl]-2-trans-styryl-tetrahydro-furo[3,4-d][1,3]dioxol-4-ylmethyl}-amino)-acetic acid] | P2Y12 antagonist activity can be obtained
19 |  | 0.163 | CCNC(=O)Nc1ncnc2c1ncn2C1OC(C(=O)O)C2O[C@H](/C=C/c3ccccc3)OC21 (stereo partly drawn) [Compound 210, 6-[6-(3-Ethyl-ureido)-purin-9-yl]-2-trans-styryl-tetrahydro-furo[3,4-d][1,3]dioxole-4-carboxylic acid] | P2Y12 antagonist activity can be obtained
20 |  | 0.503 | CCNC(=O)Nc1ncnc2c1ncn2C1CC(COC(=S)NCC(=O)O)C2O[C@H](/C=C/c3ccccc3)OC21 (stereo partly drawn) [Compound 233, {6-[6-(3-Ethyl-ureido)-purin-9-yl]-2-trans-styryl-tetrahydro-cyclopenta[1,3]dioxol-4-ylmethoxythiocarbonylamino}-acetic acid] | show P2Y12 antagonist activity
